Patent publication US20260356824A1, “COMPOUNDS FOR TREATING FIBROTIC DISEASES” (Meta-Immue Inc., priority 2023, published 2026)

Tests used:
A2058 cells = assay: Chemotaxis Assay (LPA-induced migration of A2058 cells); type: cell-based; settings: Homo sapiens, 4 to 8 hours, crystal violet 590 nm
How it was run: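 A2058 cells, starved 24 hr and treated with test compound or vehicle, were placed on a fibronectin-coated membrane ([…]) above […] in DMEM. After 4–8 h migration, migrated cells were crystal violet stained and read at 590 nm. Values are relative percentage of control.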

[1] = Liver microsomal stability, human; type: in vitro ADME; settings: human liver microsomes; 30 min; percent of parent remaining; read-out: Liver Microsomal stability (%), % of remaining after 30 min, Human
[2] = Liver microsomal stability, rat; type: in vitro ADME; settings: rat liver microsomes; 30 min; percent of parent remaining; read-out: Liver Microsomal stability (%), % of remaining after 30 min, Rat
hLPAR1 = target: T1, hLPAR1 (Homo sapiens, UniProt Q92633); assay: Ca2+ Flux Assay (B103 cells stably expressing hLPAR1); type: cell-based; settings: LPA-induced calcium release, Fura-2 AM, compound 20 min at RT
T1 construct: expressed in transfected cells
T1 sequence (Q92633 whole entry): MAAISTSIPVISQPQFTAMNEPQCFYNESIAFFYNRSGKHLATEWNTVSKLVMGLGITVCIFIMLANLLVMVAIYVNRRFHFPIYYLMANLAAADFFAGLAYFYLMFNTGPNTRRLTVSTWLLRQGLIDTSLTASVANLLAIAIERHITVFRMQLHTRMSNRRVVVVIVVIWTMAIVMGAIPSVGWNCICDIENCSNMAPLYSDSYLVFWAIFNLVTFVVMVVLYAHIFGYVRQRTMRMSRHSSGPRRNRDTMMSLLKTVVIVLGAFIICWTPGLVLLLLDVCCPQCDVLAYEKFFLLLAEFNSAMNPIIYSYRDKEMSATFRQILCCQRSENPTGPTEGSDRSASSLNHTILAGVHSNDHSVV
How it was run: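 Fura-2 AM (5 μM) loaded 40 min at RT in HBSS/20 mM HEPES/probenecid/0.3% fatty-acid-free BSA after 2 h serum starvation. Compounds preincubated 20 min at RT, then LPA […] added. Intracellular calcium mobilization read as fluorescence intensity.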

BSEP = target: T2, BSEP (Homo sapiens, UniProt O95342); assay: Bile Salt Export Pump (BSEP) Assay, Sf9 insect cell vesicles expressing BSEP; type: in vitro ADME; settings: 10 μM test compound, probe substrate 1 μM [3H]-taurocholic acid, 15 min incubation
T2 construct: ATP-dependent uptake of radiolabelled probe substrate
T2 sequence (O95342 whole entry): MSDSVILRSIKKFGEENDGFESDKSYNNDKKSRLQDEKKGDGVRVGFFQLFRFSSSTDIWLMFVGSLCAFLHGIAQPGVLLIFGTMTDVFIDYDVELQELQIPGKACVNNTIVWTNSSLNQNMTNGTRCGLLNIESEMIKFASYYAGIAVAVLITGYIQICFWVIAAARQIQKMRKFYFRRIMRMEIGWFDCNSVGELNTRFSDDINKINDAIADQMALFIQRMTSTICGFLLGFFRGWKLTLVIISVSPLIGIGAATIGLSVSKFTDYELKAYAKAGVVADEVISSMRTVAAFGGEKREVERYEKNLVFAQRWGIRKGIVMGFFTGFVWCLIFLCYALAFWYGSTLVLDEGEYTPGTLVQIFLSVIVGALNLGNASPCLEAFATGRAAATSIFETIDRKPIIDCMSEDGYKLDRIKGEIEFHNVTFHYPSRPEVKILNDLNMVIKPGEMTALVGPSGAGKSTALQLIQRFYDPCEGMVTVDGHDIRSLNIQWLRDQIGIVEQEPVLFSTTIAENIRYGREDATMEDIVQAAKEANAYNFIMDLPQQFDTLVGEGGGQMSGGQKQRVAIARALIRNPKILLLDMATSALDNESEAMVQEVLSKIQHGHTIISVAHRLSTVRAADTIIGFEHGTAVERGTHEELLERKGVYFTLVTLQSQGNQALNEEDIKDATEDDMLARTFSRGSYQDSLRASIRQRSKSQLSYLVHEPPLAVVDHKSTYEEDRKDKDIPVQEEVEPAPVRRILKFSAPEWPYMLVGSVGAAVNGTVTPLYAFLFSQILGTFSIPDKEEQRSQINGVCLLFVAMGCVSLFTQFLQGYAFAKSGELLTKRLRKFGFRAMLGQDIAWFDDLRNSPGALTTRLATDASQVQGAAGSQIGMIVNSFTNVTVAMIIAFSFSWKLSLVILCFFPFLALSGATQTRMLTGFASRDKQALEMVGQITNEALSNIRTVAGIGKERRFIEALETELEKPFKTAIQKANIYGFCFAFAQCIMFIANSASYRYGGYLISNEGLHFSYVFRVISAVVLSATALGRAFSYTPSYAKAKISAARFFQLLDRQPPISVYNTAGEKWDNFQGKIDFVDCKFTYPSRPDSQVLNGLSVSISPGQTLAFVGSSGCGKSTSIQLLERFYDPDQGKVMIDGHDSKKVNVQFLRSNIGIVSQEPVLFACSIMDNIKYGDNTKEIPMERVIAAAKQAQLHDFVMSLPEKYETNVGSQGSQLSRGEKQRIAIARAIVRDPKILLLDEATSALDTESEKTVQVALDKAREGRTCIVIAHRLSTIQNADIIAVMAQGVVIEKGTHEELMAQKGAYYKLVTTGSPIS
Protocol: • 1. A stock solution was prepared with the test article (Sponsor compound) in DMSO. • 2. All final assay solutions of probe substrate, reference inhibitor or test article contain 0.5% (v/v) DMSO (vehicle control). • 3. Test article concentrations in transport study were specified in the Summary Table of Experimental Conditions of this protocol.
• 1. Bovine Serum Albumin (BSA) • 2. Dimethyl sulfoxide (DMSO) • 3. BSEP Assay Uptake Buffer (10 mM HEPES-Tris pH 7.4, 0.1 M KNO3, 12.5 mM Mg(NO3)2, 50 mM sucrose) • 4. BSEP Wash Buffer (10 mM Tris-HCl pH 7.4, 0.1 M KNO3, 50 mM sucrose) • 5. BSEP Blocking Buffer (BSEP Wash Buffer+0.5 mg/mL BSA) • 6. 25 mM Mg-ATP solution • 7. 25 mM AMP solution • 8. Corning Costar 96-well flat-bottom, untreated, white Assay Plate (Corning Cat. No. 3912) • 9. Millipore MultiscreenHTs Filtration Plate, glass fiber FB—1.0/0.65 μm (Cat. No. MSFBN6B10 or glass fiber FC—1.2/0.65 μm (Cat. No. MSFCN6B10) • 10. Millipore MultiscreenHTS Vacuum Manifold (Cat. No. MSVMHTS00) • 11. Probe substrates listed in Table 1 • 12. Reference inhibitors listed in Table 1 • 13. Test articles
• 1. Test system: • a. 96-well flat bottom plate containing a suspension of vesicles and a corresponding 96-well glass fiber filtration plate. • b. Transport experiments were conducted in the Assay Uptake Buffer. • c. Transport experiment was initiated with the addition of Mg-ATP or AMP to appropriate wells. • d. Each condition was run in triplicate wells. • 2. Prepared the 96-well flat-bottom assay plate. • a. Incubated the assay plate with the Blocking Buffer for 60 min at 37 °C with orbital shaking at approximately 90 rpm. (NOTE: This is done to prevent non-specific binding of vesicles to polystyrene assay plate). • b. After 60 min, completely removed the Blocking Buffer from the assay plate. • c. The Assay Uptake Buffer solutions were added to the assay plate wells as follows: • i. For probe substrate transport assays, the Assay Uptake Buffer contained vesicles and the probe substrate at the specified concentration. • ii. For the reference inhibition assay, the Assay Uptake Buffer contained vesicles, the reference inhibitor and the probe substrate at the specified concentration in Table 1. • iii. For the test article assays, Assay Uptake Buffer contained vesicles, the test article and the probe substrate at the specified concentration in Table 1. • 3. Incubate at 37 °C with orbital shaking at approximately 90 rpm for the time period specified in Table 1 of this protocol. • 4. Using the 25 mM Mg-ATP or AMP stocks, Mg-ATP or AMP was added to test wells of flat bottom assay plate to a final concentration of 5 mM. • 5. Incubated at 37 °C with orbital shaking at approximately 90 rpm for the incubation time specified in Table 1 of this protocol. • 6. Prepared the 96-well glass fiber filtration plate: • a. Incubated the filtration plate with the Blocking Buffer for 2 min at room temperature with under no vacuum. • b. Turned on vacuum and allowed Blocking Buffer to filter through plate. • c. With vacuum on, filter plate was washed with ice cold Wash Buffer. • 7. At the end of the specified incubation time indicated in […] of this protocol, vesicle transport was quenched by adding ice cold Wash Buffer to samples in 96-well assay plate. • 8. Mixed assay samples (now diluted in Wash Buffer) with pipette and transfered 175 μL into the 96-well glass fiber filtration plate to separate vesicles from buffer by applying vacuum. • 9. Washed filter plate wells with ice cold Wash Buffer. • 10. Allowed filter plate to dry under vacuum. • 11. Transfered filters to scintillation sample plate and added 700 μL of scintillation fluid to the above samples. • 12. Counted the above samples on a 1450 Microbeta (Perkin-Elmer).
• 1. The amount of substrate was quantified with radiometric detection on a 1450 Microbeta (Perkin-Elmer). • 2. For transport study samples run in triplicate, the mean and standard deviation of the replicates were reported. • 3. […]

Row | SMILES | IC50 (A2058 cells) | remaining at 0.5 h [1] | remaining at 0.5 h [2] | IC50 (hLPAR1) | inhibition at 0.25 h, 10 µM (BSEP)
1 | Cn1nnc(C2CCN(c3ccc(C4(C(=O)O)CC4)cc3)CC2)c1Nc1cccc(-c2ccccc2)n1 [Compound 6] | 0.5 to 5 µM | > 75% | > 75% | 0.01 to 0.2 µM | –
2 | Cc1noc(C2CCN(c3ccc(C4(C(=O)NS(=O)(=O)C(C)(C)CO)CC4)cc3)CC2)c1NC(=O)O[C@H](C)c1ccccc1 [Compound 70] | < 0.1 µM | > 75% | > 75% | < 0.01 µM | –
3 | Cc1noc(C2CCN(c3ccc(C4(C(=O)O)CC4)cc3)CC2)c1NC(=O)O[C@H](C)c1ccccc1 [Compound 87, 1-(4-{4-[3-methyl-4-({[(1R)-1-phenylethoxy]carbonyl}amino)-1,2-oxazol-5-yl]piperidin-1-yl}phenyl)cyclopropane-1-carboxylic acid] | < 0.1 µM | > 75% | > 75% | < 0.01 µM | 25 to 50%
4 | Cc1noc(C2CCN(c3ccc(C4(C(=O)NS(=O)(=O)C(C)(C)C(=O)O)CC4)cc3)CC2)c1NC(=O)O[C@H](C)c1ccccc1 [Compound 67, 2-methyl-2-[[1-[4-[4-[3-methyl-4-[[(1R)-1-phenylethoxy]carbonylamino]isoxazol-5-yl]-1-piperidyl]phenyl]cyclopropanecarbonyl]sulfamoyl]propanoic acid] | < 0.1 µM | > 75% | > 75% | < 0.01 µM | 25 to 50%
5 | CNS(=O)(=O)NC(=O)C1(c2ccc(N3CCC(c4onc(C)c4NC(=O)O[C@H](C)c4ccccc4)CC3)cc2)CC1 [Compound 86] | 0.1 to 0.5 µM | > 75% | > 75% | < 0.01 µM | 50 to 75%
6 | Cc1noc(C2CCN(c3ccc(C4(C(=O)O)CC4)cc3)CC2)c1CNC(=O)O[C@@H](C)c1ccccc1 [Compound 25] | ≥ 5 µM | > 75% | > 75% | 0.01 to 0.2 µM | –
7 | Cc1nsc(C2CCN(c3ccc(C4(C(=O)NS(=O)(=O)C(F)(F)F)CC4)cc3)CC2)c1NC(=O)O[C@H](C)c1ccccc1 [Compound 94] | < 0.1 µM | 50 to 75% | 50 to 75% | < 0.01 µM | 75 to 100%
8 | Cc1noc(C2CCN(c3ccc(C4(C(=O)NS(=O)(=O)CCC(=O)O)CC4)cc3)CC2)c1NC(=O)O[C@H](C)c1ccccc1 [Compound 83] | < 0.1 µM | > 75% | > 75% | < 0.01 µM | ≤ 25%
9 | Cc1noc(C2CCN(c3ccc(C4(C(=O)NS(=O)(=O)CC(=O)O)CC4)cc3)CC2)c1NC(=O)O[C@H](C)c1ccccc1 [Compound 80] | < 0.1 µM | > 75% | 50 to 75% | < 0.01 µM | 25 to 50%
10 | Cc1ccccc1[C@@H](C)OC(=O)Nc1c(C)noc1C1CCN(c2ccc(C3(C(=O)NS(N)(=O)=O)CC3)cc2)CC1 [Compound 35] | < 0.1 µM | 25 to 50% | 50 to 75% | < 0.01 µM | –
11 | Cc1noc(N2CCC(c3ccc(C4(C(=O)O)CC4)cc3)CC2)c1NC(=O)O[C@H](C)c1ccccc1 [Compound 8, (R)-1-(4-(1-(3-methyl-4-(((1-phenylethoxy)carbonyl)amino)isoxazol-5-yl)piperidin-4-yl)phenyl)cyclopropane-1-carboxylic acid] | 0.1 to 0.5 µM | 50 to 75% | 50 to 75% | < 0.01 µM | 50 to 75%
12 | Cc1noc([C@@H]2CCN(c3ccc(C4(C(=O)O)CC4)cc3)[C@H](C)C2)c1NC(=O)O[C@H](C)c1ccccc1 (single isomer, unassigned) [Compound 21] | < 0.1 µM | > 75% | > 75% | 0.01 to 0.2 µM | –
13 | Cc1noc(C2CCN(c3ccc(C4(C(=O)NS(=O)(=O)CCCC(=O)O)CC4)cc3)CC2)c1NC(=O)O[C@H](C)c1ccccc1 [Compound 84] | 0.1 to 0.5 µM | 50 to 75% | > 75% | < 0.01 µM | ≤ 25%
14 | Cc1noc(C2CN(c3ccc(C4(C(=O)O)CC4)cc3)C2)c1NC(=O)O[C@H](C)c1ccccc1 [Compound 23, (R)-1-(4-(3-(3-methyl-4-(((1-phenylethoxy)carbonyl)amino)isoxazol-5-yl)azetidin-1-yl)phenyl)cyclopropane-1-carboxylic acid] | 0.5 to 5 µM | > 75% | > 75% | 0.01 to 0.2 µM | 25 to 50%
15 | Cc1noc(C2CCN(c3ccc(C4(C(=O)NS(=O)(=O)CCCO)CC4)cc3)CC2)c1NC(=O)O[C@H](C)c1ccccc1 [Compound 85] | < 0.1 µM | > 75% | 50 to 75% | < 0.01 µM | ≤ 25%
16 | CCCN(C)C(=O)OCc1c(C)noc1C1CCN(c2ccc(C3(C(=O)NS(=O)(=O)C(F)(F)F)CC3)cc2)CC1 [Compound 13] | ≥ 5 µM | ≤ 25% | 50 to 75% | ≥ 3 µM | –
17 | CNC(=O)C1(c2ccc(N3CCC(c4onc(C)c4NC(=O)O[C@H](C)c4ccccc4)CC3)cc2)CC1 [Compound 65] | 0.1 to 0.5 µM | – | – | 0.01 to 0.2 µM | 50 to 75%
18 | Cc1noc(C2CCN(c3ccc(C4(C(=O)O)CC4)cc3)CC2)c1N[C@H](C)CCc1ccccc1 [Compound 22] | 0.1 to 0.5 µM | 50 to 75% | 50 to 75% | 0.01 to 0.2 µM | –
19 | C[C@@H](OC(=O)Nc1c(C2CCN(c3ccc(C4(C(=O)O)CC4)cc3)CC2)nnn1C)c1ccccc1 [Compound 60, (R)-1-(4-(4-(1-methyl-5-(((1-phenylethoxy)carbonyl)amino)-1H-1,2,3-triazol-4-yl)piperidin-1-yl)phenyl)cyclopropane-1-carboxylic acid] | 0.1 to 0.5 µM | – | – | 0.01 to 0.2 µM | ≤ 25%
20 | C[C@@H](OC(=O)Nc1c(C2CCN(c3ccc(C4(C(=O)NS(=O)(=O)CCC(=O)O)CC4)cc3)CC2)nnn1C)c1ccccc1 [Compound 17] | 0.5 to 5 µM | – | – | < 0.01 µM | ≤ 25%
21 | Cc1noc(C2CCN(c3ccc(C4(C(=O)NS(=O)(=O)C(C)C(=O)O)CC4)cc3)CC2)c1NC(=O)O[C@H](C)c1ccccc1 (stereo partly drawn) [Compound 71] | < 0.1 µM | – | – | < 0.01 µM | 25 to 50%
